Experiments:
KP4 = test: Cell viability assay (CellTiter Glo), pancreatic ductal adenocarcinoma KP4; format: cell-based, human; details: Homo sapiens, KP-4, 96 h, pancreatic cancer cell line KP4, 96 hours, CellTiter Glo; read-out: IC50 μM KP4
Procedure, shortened: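 KP4 cells seeded at 1,000–10,000 per well, treated 96 h with 9-point 3-fold dilutions from 30 μM top (4.6 nM–30 μM, duplicates; ≤0.25% DMSO). Viability by CellTiter Glo luminescence; % inhibition relative to DMSO-only wells, giving IC50, relative IC50 or % top inhibition.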

[1] = Whole blood stability, mouse; format: in vitro ADME
Excerpt: (§1) The results of the assay on stability in blood and IC50 values for pancreatic cancer cell line KP4 are given below in Table 24.

[2] = Whole blood stability, human; format: in vitro ADME
Excerpt: as §1

SMILES: COC(=O)c1ccc([C@H]2c3[nH]c4ccc(F)cc4c3C[C@H](C(=O)OC)N2C(=O)CCl)cc1 [Compound 91]
- IC50 (KP4): < 0.01 µM
- Whole Blood Stability % Remaining at 37° C. Mouse ([1]; 0 min): 100.0%
- Whole Blood Stability % Remaining at 37° C. Mouse ([1]; 30 min): 0.0%
- Whole Blood Stability % Remaining at 37° C. Mouse ([1]; 60 min): 0.0%
- Whole Blood Stability % Remaining at 37° C. Human ([2]; 0 min): 100.0%
- Whole Blood Stability % Remaining at 37° C. Human ([2]; 30 min): 65.8%
- Whole Blood Stability % Remaining at 37° C. Human ([2]; 60 min): 47.2%

SMILES: COC(=O)c1ccc([C@@H]2c3[nH]c4ccc(F)cc4c3C[C@H](C(=O)OC)N2C(=O)CCl)cc1 [Compound 92]
- IC50 (KP4): 0.1 to 0.5 µM
- Whole Blood Stability % Remaining at 37° C. Mouse ([1]; 0 min): 100.0%
- Whole Blood Stability % Remaining at 37° C. Mouse ([1]; 30 min): 0.0%
- Whole Blood Stability % Remaining at 37° C. Mouse ([1]; 60 min): 0.0%
- Whole Blood Stability % Remaining at 37° C. Human ([2]; 0 min): 100.0%
- Whole Blood Stability % Remaining at 37° C. Human ([2]; 30 min): 40.2%
- Whole Blood Stability % Remaining at 37° C. Human ([2]; 60 min): 21.0%

SMILES: COC(=O)c1ccc([C@H]2c3[nH]c4ccc(Cl)cc4c3C[C@H](C(=O)OC)N2C(=O)CCl)cc1 [Compound 93]
- IC50 (KP4): 0.1 to 0.5 µM
- Whole Blood Stability % Remaining at 37° C. Mouse ([1]; 0 min): 100.0%
- Whole Blood Stability % Remaining at 37° C. Mouse ([1]; 30 min): 0.0%
- Whole Blood Stability % Remaining at 37° C. Mouse ([1]; 60 min): 0.0%
- Whole Blood Stability % Remaining at 37° C. Human ([2]; 0 min): 100.0%
- Whole Blood Stability % Remaining at 37° C. Human ([2]; 30 min): 66.3%
- Whole Blood Stability % Remaining at 37° C. Human ([2]; 60 min): 44.9%

SMILES: COC(=O)c1ccc([C@@H]2c3[nH]c4ccc(Cl)cc4c3C[C@H](C(=O)OC)N2C(=O)CCl)cc1 [Compound 94]
- IC50 (KP4): < 0.01 µM
- Whole Blood Stability % Remaining at 37° C. Mouse ([1]; 0 min): 100.0%
- Whole Blood Stability % Remaining at 37° C. Mouse ([1]; 30 min): 0.0%
- Whole Blood Stability % Remaining at 37° C. Mouse ([1]; 60 min): 0.0%
- Whole Blood Stability % Remaining at 37° C. Human ([2]; 0 min): 100.0%
- Whole Blood Stability % Remaining at 37° C. Human ([2]; 30 min): 50.3%
- Whole Blood Stability % Remaining at 37° C. Human ([2]; 60 min): 27.1%

SMILES: COC(=O)c1ccc([C@H]2c3[nH]c4cccc(Br)c4c3C[C@H](C(=O)OC)N2C(=O)CCl)cc1 [Compound 95]
- IC50 (KP4): 0.01 to 0.1 µM
- Whole Blood Stability % Remaining at 37° C. Mouse ([1]; 0 min): 100.0%
- Whole Blood Stability % Remaining at 37° C. Mouse ([1]; 30 min): 1.5%
- Whole Blood Stability % Remaining at 37° C. Mouse ([1]; 60 min): 0.0%
- Whole Blood Stability % Remaining at 37° C. Human ([2]; 0 min): 100.0%
- Whole Blood Stability % Remaining at 37° C. Human ([2]; 30 min): 109.5%
- Whole Blood Stability % Remaining at 37° C. Human ([2]; 60 min): 85.6%

SMILES: COC(=O)c1ccc([C@H]2c3[nH]c4cc(Br)ccc4c3C[C@H](C(=O)OC)N2C(=O)CCl)cc1 [Compound 96]
- IC50 (KP4): < 0.01 µM
- Whole Blood Stability % Remaining at 37° C. Mouse ([1]; 0 min): 100.0%
- Whole Blood Stability % Remaining at 37° C. Mouse ([1]; 30 min): 0.0%
- Whole Blood Stability % Remaining at 37° C. Mouse ([1]; 60 min): 0.0%
- Whole Blood Stability % Remaining at 37° C. Human ([2]; 0 min): 100.0%
- Whole Blood Stability % Remaining at 37° C. Human ([2]; 30 min): 29.1%
- Whole Blood Stability % Remaining at 37° C. Human ([2]; 60 min): 10.9%

SMILES: COC(=O)c1ccc([C@H]2c3[nH]c4c(Br)cccc4c3C[C@H](C(=O)OC)N2C(=O)CCl)cc1 [Compound 97]
- IC50 (KP4): < 0.01 µM
- Whole Blood Stability % Remaining at 37° C. Mouse ([1]; 0 min): 100.0%
- Whole Blood Stability % Remaining at 37° C. Mouse ([1]; 30 min): 0.0%
- Whole Blood Stability % Remaining at 37° C. Mouse ([1]; 60 min): 0.0%
- Whole Blood Stability % Remaining at 37° C. Human ([2]; 0 min): 100.0%
- Whole Blood Stability % Remaining at 37° C. Human ([2]; 30 min): 69.6%
- Whole Blood Stability % Remaining at 37° C. Human ([2]; 60 min): 44.1%

SMILES: CC[C@H]1Cc2c([nH]c3ccccc23)[C@H](c2ccc(C(=O)OC)cc2)N1C(=O)CCl [Compound 98]
- IC50 (KP4): < 0.01 µM
- Whole Blood Stability % Remaining at 37° C. Mouse ([1]; 0 min): 100.0%
- Whole Blood Stability % Remaining at 37° C. Mouse ([1]; 30 min): 0.0%
- Whole Blood Stability % Remaining at 37° C. Mouse ([1]; 60 min): 0.0%
- Whole Blood Stability % Remaining at 37° C. Human ([2]; 0 min): 100.0%
- Whole Blood Stability % Remaining at 37° C. Human ([2]; 30 min): 79.2%
- Whole Blood Stability % Remaining at 37° C. Human ([2]; 60 min): 54.8%

SMILES: CC[C@H]1Cc2c([nH]c3ccccc23)[C@@H](c2ccc(C(=O)OC)cc2)N1C(=O)CCl [Compound 99]
- IC50 (KP4): > 1 µM
- Whole Blood Stability % Remaining at 37° C. Mouse ([1]; 0 min): 100.0%
- Whole Blood Stability % Remaining at 37° C. Mouse ([1]; 30 min): 4.0%
- Whole Blood Stability % Remaining at 37° C. Mouse ([1]; 60 min): 0.0%
- Whole Blood Stability % Remaining at 37° C. Human ([2]; 0 min): 100.0%
- Whole Blood Stability % Remaining at 37° C. Human ([2]; 30 min): 94.5%
- Whole Blood Stability % Remaining at 37° C. Human ([2]; 60 min): 67.9%

SMILES: COC(=O)c1cccc([C@H]2c3[nH]c4ccccc4c3C[C@H](C(=O)OC)N2C(=O)CCl)c1 [Compound 100]
- IC50 (KP4): < 0.01 µM
- Whole Blood Stability % Remaining at 37° C. Mouse ([1]; 0 min): 100.0%
- Whole Blood Stability % Remaining at 37° C. Mouse ([1]; 30 min): 35.8%
- Whole Blood Stability % Remaining at 37° C. Mouse ([1]; 60 min): 10.8%
- Whole Blood Stability % Remaining at 37° C. Human ([2]; 0 min): 100.0%
- Whole Blood Stability % Remaining at 37° C. Human ([2]; 30 min): 60.9%
- Whole Blood Stability % Remaining at 37° C. Human ([2]; 60 min): 44.3%

SMILES: C[C@H]1Cc2c([nH]c3ccccc23)[C@H](c2ccc(S(=O)(=O)N[C@]34CC5C[C@H](C[C@H](C5)C3)C4)cc2)N1C(=O)CCl [Compound 101]
- IC50 (KP4): < 0.01 µM
- Whole Blood Stability % Remaining at 37° C. Mouse ([1]; 0 min): 100.0%
- Whole Blood Stability % Remaining at 37° C. Mouse ([1]; 30 min): 82.2%
- Whole Blood Stability % Remaining at 37° C. Mouse ([1]; 60 min): 113.2%
- Whole Blood Stability % Remaining at 37° C. Human ([2]; 0 min): 100.0%
- Whole Blood Stability % Remaining at 37° C. Human ([2]; 30 min): 46.8%
- Whole Blood Stability % Remaining at 37° C. Human ([2]; 60 min): 29.8%

SMILES: C[C@H]1Cc2c([nH]c3ccccc23)[C@H](c2ccc(C(=O)N[C@]34CC5C[C@H](C[C@H](C5)C3)C4)cc2)N1C(=O)CCl [Compound 102]
- IC50 (KP4): < 0.01 µM
- Whole Blood Stability % Remaining at 37° C. Mouse ([1]; 0 min): 100.0%
- Whole Blood Stability % Remaining at 37° C. Mouse ([1]; 30 min): 87.2%
- Whole Blood Stability % Remaining at 37° C. Mouse ([1]; 60 min): 90.1%
- Whole Blood Stability % Remaining at 37° C. Human ([2]; 0 min): 100.0%
- Whole Blood Stability % Remaining at 37° C. Human ([2]; 30 min): 96.3%
- Whole Blood Stability % Remaining at 37° C. Human ([2]; 60 min): 75.6%

SMILES: C[C@H]1Cc2c([nH]c3ccccc23)[C@H](c2ccc(N3CCOCC3)cc2)N1C(=O)CCl [Compound 103, 2-chloro-1-((1S,3S)-3-methyl-1-(4-morpholinophenyl)-1,3,4,9-tetrahydro-2H-pyrido[3,4-b]indol-2-yl)ethan-1-one]
- IC50 (KP4): < 0.01 µM
- Whole Blood Stability % Remaining at 37° C. Mouse ([1]; 0 min): 100.0%
- Whole Blood Stability % Remaining at 37° C. Mouse ([1]; 30 min): 87.1%
- Whole Blood Stability % Remaining at 37° C. Mouse ([1]; 60 min): 56.6%
- Whole Blood Stability % Remaining at 37° C. Human ([2]; 0 min): 100.0%
- Whole Blood Stability % Remaining at 37° C. Human ([2]; 30 min): 98.4%
- Whole Blood Stability % Remaining at 37° C. Human ([2]; 60 min): 75.2%

SMILES: C[C@H]1Cc2c([nH]c3ccccc23)[C@H](c2ccc(C3CCCC3)cc2)N1C(=O)CCl [Compound 109]
- IC50 (KP4): < 0.01 µM
- Whole Blood Stability % Remaining at 37° C. Mouse ([1]; 0 min): 100.0%
- Whole Blood Stability % Remaining at 37° C. Mouse ([1]; 30 min): 79.2%
- Whole Blood Stability % Remaining at 37° C. Mouse ([1]; 60 min): 87.7%
- Whole Blood Stability % Remaining at 37° C. Human ([2]; 0 min): 100.0%
- Whole Blood Stability % Remaining at 37° C. Human ([2]; 30 min): 96.1%
- Whole Blood Stability % Remaining at 37° C. Human ([2]; 60 min): 68.1%

SMILES: C[C@H]1Cc2c([nH]c3ccccc23)[C@H](c2ccc(C3CCCCC3)cc2)N1C(=O)CCl [Compound 110]
- IC50 (KP4): < 0.01 µM
- Whole Blood Stability % Remaining at 37° C. Mouse ([1]; 0 min): 100.0%
- Whole Blood Stability % Remaining at 37° C. Mouse ([1]; 30 min): 127.4%
- Whole Blood Stability % Remaining at 37° C. Mouse ([1]; 60 min): 111.0%
- Whole Blood Stability % Remaining at 37° C. Human ([2]; 0 min): 100.0%
- Whole Blood Stability % Remaining at 37° C. Human ([2]; 30 min): 68.3%
- Whole Blood Stability % Remaining at 37° C. Human ([2]; 60 min): 51.7%

SMILES: C[C@H]1Cc2c([nH]c3ccccc23)[C@@H](c2ccc(C(=O)NC34CC(C3)C4)cc2)N1C(=O)CCl [Compound 111]
- IC50 (KP4): 0.5 to 1 µM
- Whole Blood Stability % Remaining at 37° C. Mouse ([1]; 0 min): 100.0%
- Whole Blood Stability % Remaining at 37° C. Mouse ([1]; 30 min): 79.2%
- Whole Blood Stability % Remaining at 37° C. Mouse ([1]; 60 min): 87.7%
- Whole Blood Stability % Remaining at 37° C. Human ([2]; 0 min): 100.0%
- Whole Blood Stability % Remaining at 37° C. Human ([2]; 30 min): 96.1%
- Whole Blood Stability % Remaining at 37° C. Human ([2]; 60 min): 68.1%

SMILES: C[C@H]1Cc2c([nH]c3ccccc23)[C@H](c2ccc(C3CCOCC3)cc2)N1C(=O)CCl [Compound 112]
- IC50 (KP4): < 0.01 µM
- Whole Blood Stability % Remaining at 37° C. Mouse ([1]; 0 min): 100.0%
- Whole Blood Stability % Remaining at 37° C. Mouse ([1]; 30 min): 68.7%
- Whole Blood Stability % Remaining at 37° C. Mouse ([1]; 60 min): 69.3%
- Whole Blood Stability % Remaining at 37° C. Human ([2]; 0 min): 100.0%
- Whole Blood Stability % Remaining at 37° C. Human ([2]; 30 min): 58.3%
- Whole Blood Stability % Remaining at 37° C. Human ([2]; 60 min): 44.6%

SMILES: COC(=O)c1ccc([C@H]2c3[nH]c4ccc(OC)cc4c3C[C@H](C)N2C(=O)CCl)cc1 [Compound 113]
- IC50 (KP4): < 0.01 µM
- Whole Blood Stability % Remaining at 37° C. Mouse ([1]; 0 min): 100.0%
- Whole Blood Stability % Remaining at 37° C. Mouse ([1]; 30 min): 89.5%
- Whole Blood Stability % Remaining at 37° C. Mouse ([1]; 60 min): 2.4%
- Whole Blood Stability % Remaining at 37° C. Human ([2]; 0 min): 100.0%
- Whole Blood Stability % Remaining at 37° C. Human ([2]; 30 min): 85.1%
- Whole Blood Stability % Remaining at 37° C. Human ([2]; 60 min): 92.7%

From patent US11098040B2, “Compounds and methods of use” (Ferro Therapeutics, Inc., priority 2018, dated 2021)
